Two compounds from patent publication US5550110A, “Endothelin Antagonists II” (Warner-Lambert Company, priority 1994, dated 1996) can be followed below.

Peptide text beside a SMILES is read from it.

For assay [1], the target named is T1, human ETB receptor (cloned, CHO-K1 cells) (Homo sapiens, UniProt P24530).
T1 construct: The 1.35 kb HindIII/XbaI restriction fragment of clone 12 of the hETBR was inserted into the eukaryotic expression vector pRcCMV; expressed in transfected cells; host or cells: CHO-K1
T1 sequence (P24530 27-442): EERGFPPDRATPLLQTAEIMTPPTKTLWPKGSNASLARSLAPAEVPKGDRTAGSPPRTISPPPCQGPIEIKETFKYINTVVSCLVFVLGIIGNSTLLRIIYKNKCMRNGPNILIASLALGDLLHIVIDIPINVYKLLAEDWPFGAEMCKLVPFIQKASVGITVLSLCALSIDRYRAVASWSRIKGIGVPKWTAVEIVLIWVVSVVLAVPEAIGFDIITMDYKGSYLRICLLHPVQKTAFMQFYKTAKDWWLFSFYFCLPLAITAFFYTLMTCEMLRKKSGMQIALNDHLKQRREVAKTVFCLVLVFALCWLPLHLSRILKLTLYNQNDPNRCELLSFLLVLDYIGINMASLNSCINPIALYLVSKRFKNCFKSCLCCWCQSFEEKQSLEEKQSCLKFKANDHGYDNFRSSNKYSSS
The assay is described as follows: Human Endothelin Receptor Binding Assay-B (hERBA-B), binding to human cloned receptor. The conditions noted are these: membranes of transfected CHO-K1 cells. As for the experimental part: Human Endothelin Receptor Biding Assay-B (hERBA-B) [^125 I]-ET-1 Binding to Human Cloned Receptor
A human placenta cDNA library was constructed in bacteriophage lambda gt11 and approximately 10^6 plaques were screened with a ^32 P-labelled 1.3 kilobase HindIII/XbaI restriction fragment of rat ETBR cDNA as a probe. Plaque hybridization was carried out for 16 hours at 42° C. in a solution containing 100 μg/mL calf thymus DNA, 1×Denhardt's solution, 5×sodium saline citrate (SSC), 50 mM sodium phosphate, and 0.1% sodium lauryl sulfate (SDS). The membranes were then washed twice for 30 minutes each in 2×SSC and 0.1% SDS at 42° C. A final wash was carried out in 0.5×SSC with 0.1% SDS at 55° C. The positive clones were purified and subcloned into a pUC19 plasmid. DNA sequencing was performed by the dideoxynucleotide chain termination method and human ETBR (h ETBR) was identified by reading both DNA strands.
The 1.35 kb HindIII/XbaI restriction fragment of clone 12 of the hETBR was inserted into the eukaryotic expression vector pRcCMV (pRcCMV-hETBR). CHO-K1 cells were transfected with 20 μg of pRcCMV-hETBR by electroporation at 300 V, 800 μF, low ohms for 1 second. […] Expression levels of human ETBR were determined by the receptor binding assay described below using [^125 I]-ET-3 as the radioligand. […]

For assay [2], the system named is endothelin receptor (ETA), rabbit renal artery vascular smooth muscle cells. In words: Endothelin Receptor Binding Assay-A (ERBA-A), intact cell binding of [125I]-ET-1. The conditions noted are these: [125I]-ET-1 25 pM.

`CC[C@H](C)[C@H](NC(=O)[C@H](CC(=O)O)NC(=O)[C@H](CC(C)C)NC(=O)[C@H](NC(C)=O)C1c2ccccc2CCc2ccccc21)C(=O)N[C@H](C(=O)N[C@@H](Cc1c[nH]c2ccccc12)C(=O)O)[C@@H](C)CC` [Example 1, Ac-D-Bhg-Leu-Asp-Ile-Ile-Trp] (HELM PEPTIDE1{[ac].[O=C([C@H](N[*:1])C1c2ccccc2CCc2ccccc21)[*:2]].L.D.I.I.W}$$$$V2.0): the IC50 (commonly the point on the concentration scale where inhibition reaches its midpoint) in assay [1] worked out at 210 nM. Take `CC[C@H](C)[C@H](NC(=O)[C@H](CC(=O)O)NC(=O)[C@H](CC(C)C)NC(=O)[C@H](NC(C)=O)C1c2ccccc2CCc2ccccc21)C(=O)N(C)[C@H](C(=O)N[C@@H](Cc1c[nH]c2ccccc12)C(=O)O)[C@@H](C)CC` [Example 19, Ac-D-Bhg-Leu-Asp-Ile-N-MeIle-Trp] (HELM PEPTIDE1{[ac].[O=C([C@H](N[*:1])C1c2ccccc2CCc2ccccc21)[*:2]].L.D.I.[meI].W}$$$$V2.0): the IC50 in assay [1] came out at 25 nM; in assay [2], 0.5 nM.
